Test results as given in patent US20220049219A1, “AUTOMATED GENERATION AND ANALYSIS OF ORGANOIDS” (Max-Planck-Gesellschaft zur Förderung der Wissenschaften …, priority 2018, published 2022).

System: automated midbrain organoids (AMOs)
Assay: 3D toxicology assay: cCasp3/Sox2 whole mount immunostaining and high content imaging of G418-treated organoids
Assay type: cell-based, human
Settings: AMOs treated for 4 days starting at day 50 of culture; 0-1000 μg/mL; cCasp3+ cells normalized by aggregate area
Description: In order to analyze protein expression in 3D in a HTS-compatible manner, we adapted a whole mount staining protocol based on Lee et al. ACT-PRESTO: Rapid and consistent tissue 579 clearing and labeling method for 3-dimensional (3D) imaging. Sci Rep 6, 18631 (2016) for organoids and optimized it for use in an automated liquid handling system. After fixation with 4% PFA (VWR) for 10-15 minutes, we stained the organoids with primary and secondary antibodies (Alexa Fluor secondary antibodies, Thermo Fisher) for 6 days each. We diluted the antibodies in a blocking and permeabilization solution (6% BSA, 0.5% Triton-X 100 (Roth), 0.1% (w/v) sodium azide (Sigma-Aldrich) in PBS (Sigma-Aldrich)) and renewed it every 2 days. Between primary and secondary antibody incubation as well as after the staining procedure we washed the organoids 5 times for 1 h with 0.1% Triton X-100 in PBS. […]
After staining and clearing, we achieved uniform aggregate positioning within the wells by tilting the plates off the horizontal plane at 60 degrees for 1 minute. Image acquisition was carried out in an Operetta high content imager (Perkin Elmer) and images were analyzed in Harmony 4.1 software. […] We excluded image artifacts, small dust particles, and overlapping nuclei by omitting nuclei brighter than 6000 abu and larger than 70 μm2 from further quantification. […]

## CN[C@@H]1[C@@H](O)[C@@H](O[C@@H]2[C@@H](O)[C@H](O[C@H]3O[C@H]([C@@H](C)O)[C@@H](O)[C@H](O)[C@H]3N)[C@@H](N)C[C@H]2N)OC[C@]1(C)O [G418]
  IC50 from dose-response curve of number of apoptotic cCasp3+ cells against logarithmic drug concentration: 339 μg/mL
